According to article PMC11243672, “New 3-(Dibenzyloxyphosphoryl)isoxazolidine Conjugates of N1-Benzylated Quinazoline-2,4-diones as Potential Cytotoxic Agents against Cancer Cell Lines” (Molecules, 2024):

What was measured:
[1] = system: breast cancer cells (MCF-7); assay: MTS-based cytotoxicity assay, MCF-7; type: cell-based, human; conditions: 72 h treatment, 0.205–50 μM, mean ± SEM
Method: (§1) In this study, we applied the most extensively used MTS-based assay, which provides a valuable tool for determining cell viability by evaluating metabolic activity. The cytostatic activity of the tested compounds was defined as the half-maximal inhibitory concentration (IC50) causing a 50% decrease in the metabolic activity of the cells. It was determined against breast cancer (MCF-7), fibrosarcoma (HT-1080), and prostate cancer (PC-3) cells.
(§2) The tested compounds were tested against three different human cancer cell lines (breast adenocarcinoma MCF-7 ATCC® HTB-22^TM, fibrosarcoma HT-1080 ATCC® CCL121^TM, and prostate adenocarcinoma PC-3 ATCC® CRL-1435^TM). For the cell viability experiment, cells were seeded in transparent 96-well plates (FALCON no. 353072, Corning, Durham, NC, USA) in MEM (Gibco no. 31095-029, UK) supplemented with 10% heat-inactivated FBS (Gibco no. 10500-064, UK). The cell seeding density was as follows: MCF-7 12,000 cells/well, HT-1080 7000 cells/well, PC-3 10,000 cells/well. Cells were seeded one day before treatment with the tested compounds and cultured overnight. The confluence on the treatment day was around 30%. The tested compounds were dissolved in DMSO as 10 mM stock solutions and kept under −4 °C. On the day of experimentation, the medium was removed and replaced with a fresh one that contained the following: (1) dimethylsulfoxide (DMSO < 0.1%, vehicle control (Veh)); (2) increasing the concentration of compounds (0.205–50 μM, performed as a 2.5-fold serial dilution for dose–response analysis). Treatment with compounds was carried out for 72 h. Each treatment was replicated three times in a single experiment, with three separate experiments conducted. (n = 9). When significant variability in the results occurred, an additional test was performed on certain compounds. During the incubation, the cells were examined under an inverted microscope to check if the compounds had not precipitated in the culture medium. The inhibitory effect of compounds on the cell was examined using an MTS-based assay (Promega, Madison, WI, USA) following the manufacturer’s protocol. The absorbance was measured at 490 nm using Tecan Spark’s multimode plate reader (Tecan, Männedorf, Switzerland). A reference wavelength of 630 nm was used to subtract the background. IC50 values were calculated by fitting a non-linear regression to a sigmoidal dose–response curve in GraphPad Prism version 8.0.1.

[2] = system: prostate cancer cells (PC-3); assay: MTS-based cytotoxicity assay, PC-3; type: cell-based, human; conditions: 72 h treatment, 0.205–50 μM, mean ± SEM
Method: as §1, §2

[3] = system: fibrosarcoma cells (HT-1080); assay: MTS-based cytotoxicity assay, HT-1080; type: cell-based, human; conditions: 72 h treatment, 0.205–50 μM, mean ± SEM
Method: as §1, §2

HCT-116 = system: HCT-116; design: method as in PMID 37903949; conditions: cytotoxic activity; cited from earlier work
[4] = system: human skin fibroblast (HSF); assay: Safety study in vitro (MTS viability), HSF; type: cell-based; conditions: 0.205–50 μM, 72 h
Method: (§3) In drug development, particular attention should be paid to studying the safety profile of compounds. Promising drug candidates should not cause adverse effects on essential organ systems like the liver, kidney, or healthy cells in general. Systemic toxicity of the compound is the main factor limiting its therapeutic application and efficiency. In our study, a preliminary study on nephrotoxicity and hepatotoxicity was evaluated in human embryonic kidney cells (HEK293, ATCC® CRL1573™) and human hepatoma cells (HepG2, ATCC® HB8065™), respectively. HEK293 is commonly used to evaluate the cytotoxicity of nephrotoxic compounds [42]. HepG2 is a well-established in vitro human cell system to study liver toxicity. We also used healthy human skin fibroblast (HSF) to extend the cytotoxicity profile. All three cell lines were cultured in DMEM (Gibco no. 61965-026, UK) supplemented with 10% FBS (Gibco no. 10500-064, UK). For the experiment, cells were seeded (8 × 10^3 cells/100μL/well) in transparent 96-well plates (FALCON no. 353072, Corning, Durham, […], USA) and cultured overnight. […] DOX was a reference compound that adversely affected the liver, kidney, and healthy cells. Treatment with compounds was carried out for 72 h. Cell viability was examined using an MTS-based CellTiter96® AQueous One Solution Cell Proliferation Assay (Promega, Madison, WI, USA) following the manufacturer’s protocol.

[5] = system: human embryonic kidney cells (HEK293); assay: Safety study in vitro (MTS viability), HEK293; type: cell-based; conditions: 0.205–50 μM, 72 h
Method: as §3

[6] = system: human hepatoma cells (HepG2); assay: Safety study in vitro (MTS viability), HepG2; type: cell-based; conditions: 0.205–50 μM, 72 h
Method: as §3

[7] = system: colorectal adenoma cancer cell line (HT-29); design: method as in doi:10.1016/j.tet.2006.12.076; conditions: cancer cell line growth inhibition; cited from earlier work

| SMILES | IC50 ([1]; Homo sapiens, MCF7, 72 h) [µM] | IC50 ([2]; Homo sapiens, 72 h) [µM] | IC50 ([3]; Homo sapiens, HT-1080, 72 h) [µM] | also measured |
| --- | --- | --- | --- | --- |
| O=c1c2ccccc2n(C[C@@H]2C[C@@H](P(=O)(OCc3ccccc3)OCc3ccccc3)N(Cc3ccccc3)O2)c(=O)n1Cc1cccc(F)c1 (relative stereo) [trans-16c, Dibenzyl cis- and trans-5-((3-(3-fluorobenzyl)-3,4-dihydro-2,4-dioxoquinazolin-1(2H)-yl)methyl)-2-benzylisoxazolidin-3-yl-3-phosphonate] | 130 ± 9.97 | 16.4 ± 4.32 | 42.3 ± 3.48 | – |
| O=c1c2ccccc2n(C[C@@H]2C[C@@H](P(=O)(OCc3ccccc3)OCc3ccccc3)N(Cc3ccccc3)O2)c(=O)n1Cc1ccc(F)cc1 (relative stereo) [trans-16d, Dibenzyl cis- and trans-5-((3-(4-fluorobenzyl)-3,4-dihydro-2,4-dioxoquinazolin-1(2H)-yl)methyl)-2-benzylisoxazolidin-3-yl-3-phosphonate] | 88.9 ± 3.86 | 13.9 ± 2.14 | 35.6 ± 3.03 | – |
| O=c1c2ccccc2n(C[C@@H]2C[C@@H](P(=O)(OCc3ccccc3)OCc3ccccc3)N(Cc3ccccc3)O2)c(=O)n1Cc1ccccc1[N+](=O)[O-] (relative stereo) [trans-16e, Dibenzyl cis- and trans-(2-benzyl-5-((3-(2-nitrobenzyl)-2,4-dioxo-3,4-dihydroquinazolin-1(2H)-yl)methyl)isoxazolidin-3-yl)phosphonate] | 57.9 ± 8.36 | 26.6 ± 1.09 | 29.8 ± 4.75 | – |
| O=c1c2ccccc2n(C[C@@H]2C[C@@H](P(=O)(OCc3ccccc3)OCc3ccccc3)N(Cc3ccccc3)O2)c(=O)n1Cc1cccc([N+](=O)[O-])c1 (relative stereo) [trans-16f, Dibenzyl cis- and trans-2-benzyl-5-((3-(3-nitrobenzyl)-2,4-dioxo-3,4-dihydroquinazolin-1(2H)-yl)methyl)isoxazolidin-3-yl)phosphonate] | 59.4 ± 0.78 | 18.1 ± 0.98 | 23.1 ± 9.22 | – |
| O=c1c2ccccc2n(C[C@@H]2C[C@@H](P(=O)(OCc3ccccc3)OCc3ccccc3)N(Cc3ccccc3)O2)c(=O)n1Cc1ccc([N+](=O)[O-])cc1 (relative stereo) [trans-16g, Dibenzyl cis- and trans-(2-benzyl-5-((3-(4-nitrobenzyl)-2,4-dioxo-3,4-dihydroquinazolin-1(2H)-yl)methyl)isoxazolidin-3-yl)phosphonate] | 142 ± 5.11 | 16.7 ± 3.48 | 16.6 ± 3.11 | – |
| O=C(O)c1ccc(NC(=S)NC(=O)c2ccc(-n3c(=O)[nH]c4ccccc4c3=O)cc2)cc1 [Compound 13] | – | – | – | IC50 (HCT-116): 1.18 ± 0.06 µM |
| COc1cccc2c1C(=O)c1c(O)c3c(c(O)c1C2=O)C[C@@](O)(C(=O)CO)C[C@@H]3O[C@H]1C[C@H](N)[C@H](O)[C@H](C)O1 [Doxorubicin, reference compound] | – | – | – | Cell viability, HSF [4]: significant cytotoxic effect; Cell viability, HEK293 [5]: significant cytotoxic effect; Cell viability, HepG2 [6]: significant cytotoxic effect |
| CO[C@@]12[C@H](COC(N)=O)C3=C(C(=O)C(C)=C(N)C3=O)N1C[C@@H]1N[C@@H]12 [Mitomycin C] | – | – | – | GI, HT-29 [7]: 31% |
| O=c1c2ccccc2n(CC2CC(P(=O)(OCc3ccccc3)OCc3ccccc3)N(Cc3ccccc3)O2)c(=O)n1Cc1ccccc1 (stereo not drawn) [cis-16a/trans-16a (97:3), Dibenzyl cis- and trans-2-benzyl-5-((3-benzyl-3,4-dihydro-2,4-dioxoquinazolin-1(2H)-yl)methyl)isoxazolidin-3-yl-3-phosphonate] | 90.3 ± 4.57 | 12.6 ± 5.56 | – | Cell viability, HSF [4]: no adverse effect was observed; Cell viability, HEK293 [5]: did not affect cell viability; IC50 [3]: 19.9 ± 8.13 µM; Cell viability, HepG2 [6]: did not affect cell viability |
| O=c1c2ccccc2n(CC2CC(P(=O)(OCc3ccccc3)OCc3ccccc3)N(Cc3ccccc3)O2)c(=O)n1Cc1ccccc1F (stereo not drawn) [cis-16b/trans-16b (90:10), Dibenzyl cis- and trans-5-((3-(2-fluorobenzyl)-3,4-dihydro-2,4-dioxoquinazolin-1(2H)-yl)methyl)-2-benzylisoxazolidin-3-yl-3-phosphonate] | 104 ± 7.38 | 11.2 ± 1.99 | 27.3 ± 5.43 | Cell viability, HSF [4]: no adverse effect was observed; Cell viability, HEK293 [5]: did not affect cell viability; Cell viability, HepG2 [6]: did not affect cell viability |
| O=c1c2ccccc2n(CC2CC(P(=O)(OCc3ccccc3)OCc3ccccc3)N(Cc3ccccc3)O2)c(=O)n1Cc1cccc(F)c1 (stereo not drawn) [cis-16c/trans-16c (90:10), Dibenzyl cis- and trans-5-((3-(3-fluorobenzyl)-3,4-dihydro-2,4-dioxoquinazolin-1(2H)-yl)methyl)-2-benzylisoxazolidin-3-yl-3-phosphonate] | 238 ± 20.7 | 17.6 ± 6.21 | 20.5 ± 1.56 | – |
| O=c1c2ccccc2n(CC2CC(P(=O)(OCc3ccccc3)OCc3ccccc3)N(Cc3ccccc3)O2)c(=O)n1Cc1ccc(F)cc1 (stereo not drawn) [cis-16d/trans-16d (96:4), Dibenzyl cis- and trans-5-((3-(4-fluorobenzyl)-3,4-dihydro-2,4-dioxoquinazolin-1(2H)-yl)methyl)-2-benzylisoxazolidin-3-yl-3-phosphonate] | 116 ± 5.73 | 16.4 ± 3.69 | 10.4 ± 2.69 | – |
| O=c1c2ccccc2n(CC2CC(P(=O)(OCc3ccccc3)OCc3ccccc3)N(Cc3ccccc3)O2)c(=O)n1Cc1ccccc1[N+](=O)[O-] (stereo not drawn) [cis-16e/trans-16e (70:30), Dibenzyl cis- and trans-(2-benzyl-5-((3-(2-nitrobenzyl)-2,4-dioxo-3,4-dihydroquinazolin-1(2H)-yl)methyl)isoxazolidin-3-yl)phosphonate] | 59.1 ± 3.77 | 26.6 ± 4.69 | 59.6 ± 0.36 | – |
| O=c1c2ccccc2n(CC2CC(P(=O)(OCc3ccccc3)OCc3ccccc3)N(Cc3ccccc3)O2)c(=O)n1Cc1cccc([N+](=O)[O-])c1 (stereo not drawn) [cis-16f/trans-16f (96:4), Dibenzyl cis- and trans-2-benzyl-5-((3-(3-nitrobenzyl)-2,4-dioxo-3,4-dihydroquinazolin-1(2H)-yl)methyl)isoxazolidin-3-yl)phosphonate] | 91.7 ± 1.47 | 24.8 ± 2.15 | 17.1 ± 5.73 | – |
| O=c1c2ccccc2n(CC2CC(P(=O)(OCc3ccccc3)OCc3ccccc3)N(Cc3ccccc3)O2)c(=O)n1Cc1ccc([N+](=O)[O-])cc1 (stereo not drawn) [cis-16g/trans-16g (88:12), Dibenzyl cis- and trans-(2-benzyl-5-((3-(4-nitrobenzyl)-2,4-dioxo-3,4-dihydroquinazolin-1(2H)-yl)methyl)isoxazolidin-3-yl)phosphonate] | 116 ± 9.69 | 21.5 ± 4.63 | 16.4 ± 2.03 | – |
| O=c1c2ccccc2n(CC2CC(P(=O)(OCc3ccccc3)OCc3ccccc3)N(Cc3ccccc3)O2)c(=O)n1Cc1ccccc1 (stereo not drawn) [trans-16a, Dibenzyl cis- and trans-2-benzyl-5-((3-benzyl-3,4-dihydro-2,4-dioxoquinazolin-1(2H)-yl)methyl)isoxazolidin-3-yl-3-phosphonate] | – | – | – | IC50 [1]: 96 ± 4.66 µM; IC50 [2]: 12.7 ± 3.45 µM; IC50 [3]: 40.5 ± 5.44 µM |
